Test results: ChEMBL document CHEMBL1275411, “Efficacy of SPK-843, a novel polyene antifungal, in comparison with amphotericin B, liposomal amphotericin B, and micafungin against murine pulmonary aspergillosis” (Antimicrob Agents Chemother, 2008)
In brackets after ≈: the same amount, converted by molar mass. One block for each compound: values may come before it. Activity calls are given as the source filed them. The rule behind the calls is not given here. *1 amine or outer side, *2 acyl side, *3 side chain or, on linkers, in order; H or OH if unused. Where a SMILES comes first, the peptide text is derived from it. Bridges are numbered along the chain shown (N, C = ends). [ ]: non-standard residue; d: D form. The star is where a group is joined. hTyr(3S-OH,4S-OH,3'-OSO3H) = N[C@H](C(=O)O)[C@H](O)[C@@H](O)c1ccc(O)c(OS(=O)(=O)O)c1; Orn(4R-OH,5R-OH) = O=C([C@H](C[C@@H](O)[C@@H](O)N[*:3])N[*:1])[*:2]; Pro(3S-OH,4S-Me) = C[C@H]1CN[C@H](C(=O)O)[C@H]1O; X1 = CCCCCOc1ccc(-c2cc(-c3ccc(C(=O)*)cc3)no2)cc1; Gln(3R-OH) = NC(=O)C[C@@H](O)[C@H](N)C(=O)O; Hyp = O=C(O)[C@@H]1C[C@@H](O)CN1

How the values were obtained:
[1] = system: Mus musculus; assay: Toxicity in Aspergillosis infected DBA/2N mouse assessed as histopathological lesions in kidney at 4 mg/kg, iv qd after 5 days; type: organism-based; parameters: dose 4 mg/kg, route intravenous; conditions: in vivo, 120 h
[2] = system: Mus musculus; assay: Toxicity in Aspergillosis infected DBA/2N mouse assessed as histopathological lesions in kidney at 1 mg/kg, iv qd after 5 days; type: organism-based; parameters: dose 1 mg/kg, route intravenous; conditions: in vivo, 120 h
[3] = system: Mus musculus; assay: Toxicity in Aspergillosis infected DBA/2N mouse assessed as kidney tubular cell necrosis and cast formation at 1 mg/kg, iv qd after 5 days; type: organism-based; parameters: dose 1 mg/kg, route intravenous; conditions: in vivo, 120 h
[4] = system: Aspergillus fumigatus; assay: Antimicrobial activity against Aspergillus fumigatus conidia infected in DBA/2N mouse assessed as increased survival rate at 2 to 4 mg/kg, iv qd for 5 days; type: functional, organism-based
[5] = system: Aspergillus flavus; assay: Antimicrobial activity against Aspergillus flavus TIMM 0057 by broth microdilution method; type: functional
[6] = system: Aspergillus fumigatus; assay: Antimicrobial activity against Aspergillus fumigatus conidia infected in DBA/2N mouse assessed as increased survival rate at =>[…] mg/kg, iv qd for 5 days; type: functional, organism-based
[7] = system: Aspergillus niger; assay: Antimicrobial activity against Aspergillus niger TIMM 2814 by broth microdilution method; type: functional
[8] = system: Aspergillus fumigatus; assay: Antimicrobial activity against Aspergillus fumigatus MF-13 by broth microdilution method; type: functional
[9] = system: Aspergillus; assay: Antimicrobial activity against Aspergillus infected in DBA/2N mouse assessed as increased survival rate at >1 mg/kg, iv qd for 5 days relative to amphotericin B; type: functional, organism-based
[10] = system: Mus musculus; assay: Toxicity in DBA/2N mouse infected with Aspergillus at =<1.0 mg/kg, iv qd after 5 days; type: organism-based; conditions: in vivo, 120 h
[11] = system: Mus musculus; assay: Toxicity in DBA/2N mouse infected with Aspergillus at >1.0 mg/kg, iv qd for 5 days relative to amphotericin B; type: organism-based; conditions: in vivo, 120 h
[12] = system: Aspergillus; assay: Antimicrobial activity against Aspergillus infected in DBA/2N mouse at 1 mg/kg, iv qd for 5 days; type: functional, organism-based; parameters: dose 1 mg/kg
[13] = system: Aspergillus flavus; assay: Antimicrobial activity against Aspergillus flavus infected in DBA/2N mouse at >1 mg/kg, iv qd for 5 days relative to amphotericin B; type: functional, organism-based
[14] = system: Aspergillus niger; assay: Antimicrobial activity against Aspergillus niger infected in DBA/2N mouse at >1 mg/kg, iv qd for 5 days relative to amphotericin B; type: functional, organism-based
[15] = system: Aspergillus fumigatus; assay: Antimicrobial activity against Aspergillus fumigatus infected in DBA/2N mouse at >1 mg/kg, iv qd for 5 days relative to amphotericin B; type: functional, organism-based
[16] = system: Aspergillus niger; assay: Antimicrobial activity against Aspergillus niger conidia infected in DBA/2N mouse assessed as increased survival rate at 2 mg/kg, iv qd for 5 days relative to amphotericin B/L-amphotericin B; type: functional, organism-based; parameters: dose 2 mg/kg
[17] = system: Aspergillus flavus; assay: Antimicrobial activity against Aspergillus flavus conidia infected in DBA/2N mouse assessed as increased survival rate at 4 mg/kg, iv qd for 5 days relative to amphotericin B/L-amphotericin B; type: functional, organism-based; parameters: dose 4 mg/kg
[18] = system: Aspergillus niger; assay: Antimicrobial activity against Aspergillus niger conidia infected in DBA/2N mouse assessed as increased survival rate at =>0.25 mg/kg, iv qd for 5 days; type: functional, organism-based
[19] = system: Aspergillus flavus; assay: Antimicrobial activity against Aspergillus flavus conidia infected in DBA/2N mouse assessed as increased survival rate at =>1 mg/kg, iv qd for 5 days; type: functional, organism-based
[20] = system: Aspergillus fumigatus; assay: Antimicrobial activity against Aspergillus fumigatus conidia infected in DBA/2N mouse assessed as increased survival rate at 0.25 to 1 mg/kg, iv qd for 5 days; type: functional, organism-based
[21] = system: Aspergillus flavus; assay: Antimicrobial activity against Aspergillus flavus conidia infected in iv dosed DBA/2N mouse assessed as increased survival rate measured for 5 days; type: functional, organism-based
[22] = system: Aspergillus niger; assay: Antimicrobial activity against Aspergillus niger conidia infected in iv dosed DBA/2N mouse assessed as increased survival rate measured for 5 days; type: functional, organism-based

Structure (SMILES): C[C@@H]1[C@H](O)[C@@H](C)/C=C/C=C/C=C/C=C/C=C/C=C/C=C/[C@H](O[C@@H]2O[C@H](C)[C@@H](O)[C@H](N)[C@@H]2O)C[C@@H]2O[C@](O)(C[C@@H](O)C[C@@H](O)[C@H](O)CC[C@@H](O)C[C@@H](O)CC(=O)O[C@H]1C)C[C@H](O)[C@H]2C(=O)O [AMPHOTERICIN B]
Activity [1]: Non-toxic
Activity [2]: Non-toxic
Activity [3]: Toxic
Activity [4]: Active
MIC [5]: 0.5 µg/mL (≈ 0.541 µM)
Activity [6]: Active
MIC [7]: 0.25 µg/mL (≈ 0.271 µM)
MIC [8]: 0.25 µg/mL (≈ 0.271 µM)

Structure (SMILES): CNc1ccc(C(=O)CC(O)CC[C@H](C)C2OC(=O)C[C@H](O)CC(=O)C[C@H](O)C[C@H](O)C[C@H](O)C[C@H](O)C[C@]3(O)C[C@H](O)[C@@H](C(=O)NCCN(C)C)[C@H](C[C@@H](O[C@@H]4O[C@H](C)[C@@H](O)[C@H](NC(=O)CN(C)C)[C@@H]4O)/C=C/C=C/C=C/C=C/C=C/C=C/C=C/C2C)O3)cc1.O=C1O[C@H]([C@@H](O)CO)C(O)=C1O.O=C1O[C@H]([C@@H](O)CO)C(O)=C1O (some centres not stated)
Activity [9]: Active
Activity [10]: Non-toxic
Activity [11]: Non-toxic
Activity [12]: inactive
Activity [13]: Active
Activity [14]: Active
Activity [15]: Active
Activity [16]: Active
Activity [17]: Active
Activity [18]: Active
Activity [19]: Active
Activity [20]: Active
MIC [5]: 0.25 µg/mL
Activity [6]: Active
MIC [7]: 0.0625 µg/mL
MIC [8]: 0.5 µg/mL
Activity [21]: Dose-dependent effect
Activity [22]: Dose-dependent effect

MIC [8]: 0.0156 µg/mL (≈ 0.0123 µM)
Structure (SMILES): CCCCCOc1ccc(-c2cc(-c3ccc(C(=O)N[C@H]4C[C@@H](O)[C@@H](O)NC(=O)[C@@H]5[C@@H](O)[C@@H](C)CN5C(=O)[C@H]([C@H](O)CC(N)=O)NC(=O)[C@H]([C@H](O)[C@@H](O)c5ccc(O)c(OS(=O)(=O)O)c5)NC(=O)[C@@H]5C[C@@H](O)CN5C(=O)[C@H]([C@@H](C)O)NC4=O)cc3)no2)cc1 [MICAFUNGIN] (X1-[Orn(4R-OH,5R-OH)]T[Hyp][hTyr(3S-OH,4S-OH,3'-OSO3H)][Gln(3R-OH)][Pro(3S-OH,4S-Me)]; lactam 1-C)
